Reference: US7491827B2, “Aryl sulfonamides useful as inhibitors of chemokine receptor activity” (Millennium Pharmaceuticals, Inc., priority 2003, dated 2009)

These molecules were tested against T1, cloned human CCR8 receptor stably expressed in L1.2 cells (Homo sapiens, UniProt P51685) (assay: whole cell binding screen: inhibition of biotinylated human I309 binding to CCR8 (FMAT 8100 HTS)). Details: Ki of compounds to inhibit I-309 binding to CCR8, L1.2/hCCR8 cells, biotinylated human I-309, 10 point concentration response starting at 10 μM.
T1 construct: expressed in transfected cells
Summary of the method: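 L1.2 murine pre-B cells stably expressing human CCR8 (4.0×10^5 cells/mL) in HBSS/HEPES/fatty-acid-free BSA/azide buffer were mixed with biotinylated human I309 and compounds for 0.5 h, read by FMAT fluorescence. 10-point curves from 10 μM final; percent inhibition normalized to no-inhibitor and 100 nM unlabeled I309 controls.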

T1 sequence (P51685 whole entry): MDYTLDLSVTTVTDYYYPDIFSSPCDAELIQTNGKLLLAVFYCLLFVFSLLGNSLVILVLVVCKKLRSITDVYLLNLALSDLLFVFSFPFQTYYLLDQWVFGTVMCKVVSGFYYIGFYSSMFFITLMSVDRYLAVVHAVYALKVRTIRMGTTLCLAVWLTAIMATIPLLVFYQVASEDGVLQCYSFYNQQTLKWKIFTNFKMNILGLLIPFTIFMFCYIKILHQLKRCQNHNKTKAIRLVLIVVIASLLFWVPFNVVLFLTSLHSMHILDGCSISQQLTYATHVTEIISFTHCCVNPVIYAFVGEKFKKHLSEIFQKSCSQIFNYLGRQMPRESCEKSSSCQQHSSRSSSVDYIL

SMILES | Ki [nM]
Cc1ccccc1C(=O)Nc1ccc(S(=O)(=O)NC2CCN(C(=O)[C@@H]3CCCN3)CC2)c2ccccc12 [Compound C-125, (S)-2-Methyl-N-{4-[1-(pyrrolidine-2-carbonyl)-piperidin-4-ylsulfamoyl]-naphthalen-1-yl}-benzamide] | < 500
Cc1ccccc1C(=O)Nc1ccc(S(=O)(=O)NC2CCN(C(=O)NC(C)C)CC2)c2ccccc12 [Compound C-46, 4-[4-(2-Methyl-benzoylamino)-naphthalene-1-sulfonylamino]-piperidine-1-carboxylic acid isopropylamide] | < 500
O=C(Nc1ccc(S(=O)(=O)NC2CCCCC2)c2ccccc12)c1ccccc1 [Compound A-10, N-(4-Cyclohexylsulfamoyl-naphthalen-1-yl)-benzamide] | < 1000

Same assay, conditions: L1.2/hCCR8 cells, biotinylated human I-309, 10 point concentration response starting at 10 μM; read-out: Ki of compounds to inhibit I-309 binding to CCR8

SMILES | Ki [nM]
CC[C@@H]1CN(C(=O)[C@H](C)N)CC[C@H]1NS(=O)(=O)c1ccc(NC(=O)c2ccccc2C)c2ccccc12 [Compound J-32, (3R, 4R)-N-{4-[1-(2-(S)-Amino-propionyl)-3-ethyl-piperidin-4-ylsulfamoyl]-naphthalen-1-yl}-2-methyl-benzamide] | < 500
CCOC(=O)N1CCC(NS(=O)(=O)c2ccc(NC(=O)c3cccnc3C)c3ccccc23)CC1 [Compound B-24] | < 500
CCOC(=O)N1CCC(NS(=O)(=O)c2ccc(CNC(=O)c3ccccc3C)c3ccccc23)CC1 [Compound G-1, 4-{4-[(2-Methyl-benzoylamino)-methyl]-naphthalene-1-sulfonylamino}-piperidine-1-carboxylic acid ethyl ester] | < 500
CC[C@H]1CNCC[C@@H]1NS(=O)(=O)c1ccc(NC(=O)c2ccccc2C)c2ccccc12 [Compound J-47] | < 500
Cc1ccccc1C(=O)Nc1ccc(S(=O)(=O)NC2CCN(C(=O)C(C)C)CC2)c2c1CCCC2 [Compound E-12, N-[4-(1-Isobutyryl-piperidin-4-ylsulfamoyl)-5,6,7,8-tetrahydro-naphthalen-1-yl]-2-methyl-benzamide] | < 500
CCOC(=O)N1CCC(NS(=O)(=O)c2cccc3c(C(=O)Nc4cccc(C)c4)cccc23)CC1 [Compound H-41, 4-(5-m-Tolylcarbamoyl-naphthalene-1-sulfonylamino)-piperidine-1-carboxylic acid ethyl ester] | < 30000
CCCC(=O)N1CCC(NS(=O)(=O)c2ccc(NC(=O)C3CC3)c3ccccc23)CC1 [Compound D-15, Cyclopropanecarboxylic acid [4-(1-butyryl-piperidin-4-ylsulfamoyl)-naphthalen-1-yl]-amide] | < 500
CCCC(=O)N1CCC(NS(=O)(=O)c2ccc(C(=O)Nc3ccccc3Cl)c3ccccc23)CC1 [Compound F-22, 4-(1-Butyryl-piperidin-4-ylsulfamoyl)-naphthalene-1-carboxylic acid (2-chloro-phenyl)-amide] | < 500
CCCC(=O)N1CC[C@H](NS(=O)(=O)c2ccc(NC(=O)c3ccccc3C)c3ncccc23)[C@H](C)C1 [Compound J-41, (3R, 4S)-N-[5-(1-Butyryl-3-methyl-piperidin-4-ylsulfamoyl)-quinolin-8-yl]-2-methyl-benzamide] | < 500
Cc1ccccc1C(=O)Nc1ccc(S(=O)(=O)NC2CCNCC2)c2c1CCC2 [Compound H-67, 2-Methyl-N-[7-(piperidin-4-ylsulfamoyl)-indan-4-yl]-benzamide] | < 1000
CCN(CC)C(=O)N1CCC(NS(=O)(=O)c2ccc(NC(=O)c3ccccc3C)c3ccccc23)CC1 [Compound C-42, 4-[4-(2-Methyl-benzoylamino)-naphthalene-1-sulfonylamino]-piperidine-1-carboxylic acid diethylamide] | < 500
Cc1ccccc1C(=O)Nc1ccc(S(=O)(=O)N[C@@H]2CCN(C(=O)CN3CCOCC3)C[C@@H]2C)c2ccccc12 (racemic) [Compound C-145, (±)-2-Methyl-N-{4-[3-cis-methyl-1-(2-morpholin-4-yl-acetyl)-piperidin-4-ylsulfamoyl]-naphthalen-1-yl}-benzamide] | < 1000
Cc1ccccc1C(=O)Nc1ccc(S(=O)(=O)N[C@@H]2CCN(C(=O)CN3CCCC3)C[C@@H]2C)c2ccccc12 (racemic) [Compound C-142, (±)-2-Methyl-N-{4-[cis-3-methyl-1-(2-pyrrolidin-1-yl-acetyl)-piperidin-4-ylsulfamoyl]-naphthalen-1-yl}-benzamide] | < 500
CCOC(=O)N1CCC(NS(=O)(=O)c2cccc3c(NC(=O)c4ccc(C)s4)cccc23)CC1 [Compound H-16, 4-{5-[(5-Methyl-thiophene-2-carbonyl)-amino]-naphthalene-1-sulfonylamino}-piperidine-1-carboxylic acid ethyl ester] | < 500
CCOC(=O)N1CC[C@H](NS(=O)(=O)c2ccc(NC(=O)c3c(C)noc3C)c3ccccc23)[C@H](C)C1 (racemic) [Compound D-8, (±)-(cis)-4-{4-[(3,5-Dimethyl-isoxazole-4-carbonyl)-amino]-naphthalene-1-sulfonylamino}-3-methyl-piperidine-1-carboxylic acid ethyl ester] | < 500
CCC(C)N1CCC(NS(=O)(=O)c2ccc(NC(=O)c3ccccc3C)c3ccccc23)CC1 (racemic) [Compound C-32, (±)-N-[4-(1-sec-Butyl-piperidin-4-ylsulfamoyl)-naphthalen-1-yl]-2-methyl-benzamide] | < 1000

SMILES | Ki [nM]
O=C(Nc1cccc2c(S(=O)(=O)Nc3ccc(F)cc3)cccc12)c1ccccc1 [Compound H-4, N-[5-(4-Fluoro-phenylsulfamoyl)-naphthalen-1-yl]-benzamide] | < 30000
CCNC(=O)N1CCC(NS(=O)(=O)c2ccc(N3C(=O)c4ccccc4C3=O)c3ccccc23)CC1 [Compound C-98, 4-[4-(1,3-Dioxo-1,3-dihydro-isoindol-2-yl)-naphthalene-1-sulfonylamino]-piperidine-1-carboxylic acid ethylamide] | < 1000
CCNC(=O)N1CCC(C)(NS(=O)(=O)c2ccc(NC(=O)c3ccccc3C)c3ccccc23)CC1 [Compound C-24, 4-Methyl-4-[4-(2-methyl-benzoylamino)-naphthalene-1-sulfonylamino]-piperidine-1-carboxylic acid ethylamide] | < 500
CC1CCCCC1NC(=O)c1cccc2c(S(=O)(=O)NC3CCN(C(=O)N(C)C)CC3)cccc12 (racemic) [Compound H-33, (±)-4-[5-(2-Methyl-cyclohexylcarbamoyl)-naphthalene-1-sulfonylamino]-piperidine-1-carboxylic acid dimethylamide] | < 500
COC(=O)N1CCC(NS(=O)(=O)c2ccc(NC(=O)c3ccccc3C)c3c2CCCC3)CC1 [Compound E-15, 4-[4-(2-Methyl-benzoylamino)-5,6,7,8-tetrahydro-naphthalene-1-sulfonylamino]-piperidine-1-carboxylic acid methyl ester] | < 500
Cc1ccccc1C(=O)NCc1ccc(S(=O)(=O)NC2CCCCC2)c2ccccc12 [Compound G-5, N-(4-Cyclohexylsulfamoyl-naphthalen-1-ylmethyl)-2-methyl-benzamide] | < 1000
CCCC(=O)N1CCC(NS(=O)(=O)c2cccc3c(C(=O)NC4CCCCC4C)cccc23)CC1 (racemic) [Compound H-29, (±)-5-(1-Butyryl-piperidin-4-ylsulfamoyl)-naphthalene-1-carboxylic acid (2-methyl-cyclohexyl)-amide] | < 500
Cc1ccccc1C(=O)Nc1ccc(S(=O)(=O)N[C@H]2CCNC[C@H]2C)c2ccccc12 (racemic) [Compound C-28, (±)-cis-2-Methyl-N-[4-(3-methyl-piperidin-4-ylsulfamoyl)-naphthalen-1-yl]-benzamide] | < 1000
CN1CCC(C(=O)Nc2ccc(S(=O)(=O)NC3CCN(C(=O)OC(C)(C)C)CC3)c3ccccc23)CC1 [Compound B-21, 4-{4-[(1-Methyl-piperidine-4-carbonyl)-amino]-naphthalene-1-sulfonylamino}-piperidine-1-carboxylic acid tert-butyl ester] | < 30000
O=C(Nc1ccc(S(=O)(=O)NC2CCNCC2)c2ccccc12)C1CCC1 [Compound D-13, Cyclobutanecarboxylic acid [4-(piperidin-4-ylsulfamoyl)-naphthalen-1-yl]-amide] | < 30000
CCCC(=O)N1CCC(NS(=O)(=O)c2cc3c(c(N4C(=O)c5ccccc5C4=O)c2)CCCC3)CC1 [Compound H-60, 4-(1,3-Dioxo-1,3-dihydro-isoindol-2-yl)-5,6,7,8-tetrahydro-naphthalene-2-sulfonic acid (1-butyryl-piperidin-4-yl)-amide] | < 30000
CCOC(=O)N1CCC(NS(=O)(=O)c2ccc(CNCc3ccc(Cl)cc3)c3ccccc23)CC1 [Compound G-7, 4-{4-[(4-Chloro-benzylamino)-methyl]-naphthalene-1-sulfonylamino}-piperidine-1-carboxylic acid ethyl ester] | < 500
CCOC(=O)N1CCC(NS(=O)(=O)c2ccc(CN(CC)C3CCCCC3)c3ccccc23)CC1 [Compound G-20, 4-{4-[(Cyclohexyl-ethyl-amino)-methyl]-naphthalene-1-sulfonylamino}-piperidine-1-carboxylic acid ethyl ester] | < 500
CCOC(=O)N1CCC(NS(=O)(=O)c2cccc3c(C(=O)NC4CCCC(C)C4C)cccc23)CC1 (racemic) [Compound H-30, (±)-4-[5-(2,3-Dimethyl-cyclohexylcarbamoyl)-naphthalene-1-sulfonylamino]-piperidine-1-carboxylic acid ethyl ester] | < 500
COc1ccc(NS(=O)(=O)c2ccc3cccc(NC(=O)c4ccccc4)c3c2)cc1 [Compound H-47, N-[7-(4-Methoxy-phenylsulfamoyl)-naphthalen-1-yl]-benzamide] | < 500
